The record followed here is patent US12065436B2, “Cardiac sarcomere inhibitors” (Cytokinetics, Inc., priority 2018, dated 2024).

The target of this assay is bovine cardiac myofibrils (full-length cardiac myosin ATPase in the native sarcomere) (Bos taurus (Bovine), UniProt Q9BE39). The assay is described as follows: Skinned bovine cardiac myofibril ATPase assay (PK/LDH-coupled). It is filed as biochemical. The settings on record: Ca2+ activating to 75% of maximal rate; for CDMF75 IC15: concentration giving 15% inhibition; for IC50: read-out: CDMF75 IC50. In a few lines:
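Triton-skinned bovine left-ventricle myofibrils (1 mg/mL) in PM 12 buffer (12 mM PIPES, 2 mM MgCl2, pH 6.8) with 50 μM ATP, 0.6 mM EGTA and CaCl2 set for 50% or 75% activation. Steady-state ATPase inhibition followed by PK/LDH-coupled NADH oxidation at 340 nm.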

bovine cardiac myofibrils (full-length cardiac myosin ATPase in the native sarcomere), sequence (Q9BE39 whole entry): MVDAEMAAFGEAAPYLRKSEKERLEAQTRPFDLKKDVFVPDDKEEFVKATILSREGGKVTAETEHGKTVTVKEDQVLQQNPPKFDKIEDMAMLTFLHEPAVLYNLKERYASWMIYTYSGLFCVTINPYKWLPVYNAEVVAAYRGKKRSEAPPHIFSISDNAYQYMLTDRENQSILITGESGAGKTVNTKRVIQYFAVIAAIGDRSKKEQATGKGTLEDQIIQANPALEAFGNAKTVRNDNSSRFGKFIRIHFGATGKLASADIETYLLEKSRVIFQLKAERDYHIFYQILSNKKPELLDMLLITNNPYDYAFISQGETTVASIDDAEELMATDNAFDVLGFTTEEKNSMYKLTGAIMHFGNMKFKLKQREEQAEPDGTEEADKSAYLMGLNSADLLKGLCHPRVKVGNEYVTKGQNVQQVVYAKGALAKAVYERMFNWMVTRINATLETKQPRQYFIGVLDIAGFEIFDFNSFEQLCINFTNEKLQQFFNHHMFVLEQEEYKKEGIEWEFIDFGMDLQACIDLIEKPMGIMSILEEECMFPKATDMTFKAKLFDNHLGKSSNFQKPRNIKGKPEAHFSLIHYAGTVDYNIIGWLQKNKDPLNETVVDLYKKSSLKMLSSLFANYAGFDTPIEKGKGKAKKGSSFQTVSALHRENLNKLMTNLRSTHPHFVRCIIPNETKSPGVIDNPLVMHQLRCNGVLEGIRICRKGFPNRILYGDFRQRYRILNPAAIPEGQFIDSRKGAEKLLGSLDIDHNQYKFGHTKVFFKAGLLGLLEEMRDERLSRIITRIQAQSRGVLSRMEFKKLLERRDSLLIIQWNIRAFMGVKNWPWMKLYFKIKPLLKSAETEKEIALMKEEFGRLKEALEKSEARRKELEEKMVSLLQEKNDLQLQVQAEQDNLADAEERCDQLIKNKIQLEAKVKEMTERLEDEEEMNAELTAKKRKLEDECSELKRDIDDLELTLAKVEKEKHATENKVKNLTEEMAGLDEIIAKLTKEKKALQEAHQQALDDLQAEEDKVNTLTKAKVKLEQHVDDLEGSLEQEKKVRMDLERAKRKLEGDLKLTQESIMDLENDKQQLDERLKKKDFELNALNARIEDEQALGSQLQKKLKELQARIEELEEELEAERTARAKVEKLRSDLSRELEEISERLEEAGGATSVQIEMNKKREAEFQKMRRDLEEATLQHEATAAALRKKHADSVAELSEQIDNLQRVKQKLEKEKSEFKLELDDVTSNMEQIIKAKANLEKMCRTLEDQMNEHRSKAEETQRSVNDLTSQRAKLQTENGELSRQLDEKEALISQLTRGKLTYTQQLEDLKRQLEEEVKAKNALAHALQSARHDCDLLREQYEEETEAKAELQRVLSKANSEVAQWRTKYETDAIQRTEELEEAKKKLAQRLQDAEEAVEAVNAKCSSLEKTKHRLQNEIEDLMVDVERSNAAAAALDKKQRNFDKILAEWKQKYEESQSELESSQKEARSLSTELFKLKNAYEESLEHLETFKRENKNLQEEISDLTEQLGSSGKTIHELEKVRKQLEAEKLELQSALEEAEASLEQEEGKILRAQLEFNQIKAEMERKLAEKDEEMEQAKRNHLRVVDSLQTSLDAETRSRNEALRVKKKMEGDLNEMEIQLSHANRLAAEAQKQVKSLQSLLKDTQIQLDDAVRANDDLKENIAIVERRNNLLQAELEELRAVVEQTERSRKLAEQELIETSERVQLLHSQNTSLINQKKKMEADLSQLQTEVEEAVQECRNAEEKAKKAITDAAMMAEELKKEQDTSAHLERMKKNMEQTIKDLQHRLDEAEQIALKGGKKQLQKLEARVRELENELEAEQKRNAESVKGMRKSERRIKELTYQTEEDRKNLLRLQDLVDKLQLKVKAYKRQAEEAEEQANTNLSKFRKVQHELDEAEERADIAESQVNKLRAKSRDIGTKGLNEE
bovine cardiac myofibrils (full-length cardiac myosin ATPase in the native sarcomere), sequence (P85100 whole entry partner): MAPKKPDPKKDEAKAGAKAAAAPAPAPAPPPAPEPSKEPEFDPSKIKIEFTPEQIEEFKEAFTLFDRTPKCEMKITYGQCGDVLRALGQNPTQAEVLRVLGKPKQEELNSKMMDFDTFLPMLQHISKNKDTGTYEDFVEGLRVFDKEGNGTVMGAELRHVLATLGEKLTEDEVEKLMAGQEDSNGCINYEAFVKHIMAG
bovine cardiac myofibrils (full-length cardiac myosin ATPase in the native sarcomere), sequence (Q3SZE5 whole entry partner): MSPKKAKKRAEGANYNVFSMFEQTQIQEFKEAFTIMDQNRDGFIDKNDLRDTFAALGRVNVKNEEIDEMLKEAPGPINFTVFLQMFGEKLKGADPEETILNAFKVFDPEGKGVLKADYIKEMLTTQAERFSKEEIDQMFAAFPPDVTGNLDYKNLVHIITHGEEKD

Regarding `CCc1cc(-c2ccc3c(c2)OC[C@H]3NC(=O)c2cnc(C)o2)no1` [Compound 422, (S)-N-(6-(5-ethylisoxazol-3-yl)-2,3-dihydrobenzofuran-3-yl)-2-methyloxazole-5-carboxamide], the “CDMF75 IC15” value was 400 nM and the concentration for half-maximal inhibition (IC50) (in general, the concentration needed to halve the response being measured) worked out at 1500 nM.
The corresponding values for `O=C(NC1CCc2cc(-c3noc(C(F)F)n3)ccc21)c1ccnc(O)c1` (stereo not shown) [Compound 95, N-(5-(5-(difluoromethyl)-1,2,4-oxadiazol-3-yl)-2,3-dihydro-1H-inden-1-yl)-2-hydroxyisonicotinamide] are 1900 nM and 8000 nM.
The corresponding values for `CCc1nc(-c2ccc3c(c2)CC[C@H]3NC(=O)c2cc(C(C)O)ccn2)no1` (stereo partly drawn) [Compound 721, N-((R)-5-(5-ethyl-1,2,4-oxadiazol-3-yl)-2,3-dihydro-1H-inden-1-yl)-4-(1-hydroxyethyl)picolinamide] are 1500 nM and 6700 nM.
The corresponding values for `COCc1nc(-c2ccc3c(c2)CC[C@H]3NC(=O)c2cc(C)no2)no1` [Compound 688, (R)-N-(5-(5-(methoxymethyl)-1,2,4-oxadiazol-3-yl)-2,3-dihydro-1H-inden-1-yl)-3-methylisoxazole-5-carboxamide] are 1700 nM and 6800 nM.
Take `Cn1nnc(C(=O)N[C@@H]2CCc3cc(-c4noc(C5CCC5)n4)ccc32)n1` [Compound 143, (R)—N-(5-(5-cyclobutyl-1,2,4-oxadiazol-3-yl)-2,3-dihydro-1H-inden-1-yl)-2-methyl-2H-tetrazole-5-carboxamide]: the “CDMF75 IC15” value came to 300 nM and the half-maximal inhibitory concentration (IC50) was 1000 nM.
`CCc1nc(-c2ccc3c(c2)CC[C@H]3NC(=O)c2ccnn2CCO)no1` [Compound 607, (R)-N-(5-(5-ethyl-1,2,4-oxadiazol-3-yl)-2,3-dihydro-1H-inden-1-yl)-1-(2-hydroxyethyl)-1H-pyrazole-5-carboxamide]: the “CDMF75 IC15” value was found to be 2900 nM and the IC50 came to 15400 nM.
For the compound `Cc1cc(C(=O)N[C@@H]2COc3cc(-c4noc(C)n4)ccc32)n(C)n1` [Compound 156, (S)-1,3-dimethyl-N-(6-(5-methyl-1,2,4-oxadiazol-3-yl)-2,3-dihydrobenzofuran-3-yl)-1H-pyrazole-5-carboxamide], the “CDMF75 IC15” value stood at 1100 nM and the concentration for half-maximal inhibition (IC50) came out at 4700 nM.
Regarding `Cc1noc(-c2ccc3c(c2)CC[C@H]3NC(=O)c2cnc(C)o2)n1` [Compound 202, (R)-2-methyl-N-(5-(3-methyl-1,2,4-oxadiazol-5-yl)-2,3-dihydro-1H-inden-1-yl)oxazole-5-carboxamide], the “CDMF75 IC15” value is 2600 nM and the IC50 was 10500 nM.
The corresponding values for `Cc1cc(C(=O)NC2CCc3cc(-c4noc(C)n4)ccc32)n(C)n1` (stereo not shown) [Compound 47, 1,3-dimethyl-N-(5-(5-methyl-1,2,4-oxadiazol-3-yl)-2,3-dihydro-1H-inden-1-yl)-1H-pyrazole-5-carboxamide] are 1400 nM and 5000 nM.
Turning to `CCn1nc(C)c(C(=O)NC2CCc3cc(-c4noc(C(F)F)n4)ccc32)n1` (stereo not shown) [Compound 20, N-(5-(5-(difluoromethyl)-1,2,4-oxadiazol-3-yl)-2,3-dihydro-1H-inden-1-yl)-2-ethyl-5-methyl-2H-1,2,3-triazole-4-carboxamide], the “CDMF75 IC15” value was 2300 nM and the half-maximal inhibitory concentration (IC50) is greater than 39200 nM.
Regarding `CCc1nc(-c2ccc3c(c2)CC[C@H]3NC(=O)c2cn(C)nc2C)no1` [Compound 563, (R)-N-(5-(5-ethyl-1,2,4-oxadiazol-3-yl)-2,3-dihydro-1H-inden-1-yl)-1,3-dimethyl-1H-pyrazole-4-carboxamide], the “CDMF75 IC15” value stood at 400 nM and the IC50 was 1200 nM.
The corresponding values for `COCc1nc(-c2ccc3c(c2)CC[C@H]3NC(=O)c2conc2C)no1` [Compound 689, (R)-N-(5-(5-(methoxymethyl)-1,2,4-oxadiazol-3-yl)-2,3-dihydro-1H-inden-1-yl)-3-methylisoxazole-4-carboxamide] are 600 nM and 2100 nM.
Turning to `Cc1cc(-c2ccc3c(c2)OC[C@H]3NC(=O)c2ccnn2C)no1` [Compound 427, (S)-1-methyl-N-(6-(5-methylisoxazol-3-yl)-2,3-dihydrobenzofuran-3-yl)-1H-pyrazole-5-carboxamide], the “CDMF75 IC15” value came out at 500 nM and the IC50 is 1600 nM.
With `[2H]C([2H])([2H])c1noc(-c2ccc3c(c2)OC[C@H]3NC(=O)c2cnn(C)c2C)n1` [Compound 341, (S)-1,5-dimethyl-N-(6-(3-(methyl-d3)-1,2,4-oxadiazol-5-yl)-2,3-dihydrobenzofuran-3-yl)-1H-pyrazole-4-carboxamide], the “CDMF75 IC15” value is 1900 nM and the IC50 came out at 7300 nM.
As for `CCc1nc(-c2ccc3c(c2)CC[C@H]3NC(=O)c2ccn(C)c(=O)c2)no1` [Compound 558, (R)-N-(5-(5-ethyl-1,2,4-oxadiazol-3-yl)-2,3-dihydro-1H-inden-1-yl)-1-methyl-2-oxo-1,2-dihydropyridine-4-carboxamide], the “CDMF75 IC15” value worked out at 2000 nM and the concentration for half-maximal inhibition (IC50) stood at 8300 nM.
As for `CCc1nc(-c2ccc3c(c2)OCC3NC(=O)c2cnn(C)c2)no1` (stereo not shown) [Compound 239, N-(6-(5-ethyl-1,2,4-oxadiazol-3-yl)-2,3-dihydrobenzofuran-3-yl)-1-methyl-1H-pyrazole-4-carboxamide], the “CDMF75 IC15” value was found to be 700 nM and the IC50 was found to be 2100 nM.
As for `Cn1nccc1C(=O)NC1COc2cc(-c3noc(C(F)F)n3)ccc21` (stereo not shown) [Compound 123, N-(6-(5-(difluoromethyl)-1,2,4-oxadiazol-3-yl)-2,3-dihydrobenzofuran-3-yl)-1-methyl-1H-pyrazole-5-carboxamide], the “CDMF75 IC15” value is 500 nM and the half-inhibitory concentration (IC50) came out at 1700 nM.
With `CCc1nc(-c2ccc3c(c2)CCCC3NC(=O)c2ccnn2C)no1` (stereo not shown) [Compound 525, N-(6-(5-ethyl-1,2,4-oxadiazol-3-yl)-1,2,3,4-tetrahydronaphthalen-1-yl)-1-methyl-1H-pyrazole-5-carboxamide], the “CDMF75 IC15” value was 700 nM and the IC50 came to 2500 nM.
Consider `COCc1nc(-c2ccc3c(c2)OC[C@H]3NC(=O)c2cccc([C@@H](C)O)c2)no1` [Compound 737, 3-((R)-1-hydroxyethyl)-N-((S)-6-(5-(methoxymethyl)-1,2,4-oxadiazol-3-yl)-2,3-dihydrobenzofuran-3-yl)benzamide], for which the “CDMF75 IC15” value is 2400 nM and the IC50 came to 14900 nM.
Turning to `CCc1nc(-c2ccc3c(c2)CC[C@H]3NC(=O)N2CC[C@@H](O)C2)no1` [Compound 724, (R)-N-((R)-5-(5-ethyl-1,2,4-oxadiazol-3-yl)-2,3-dihydro-1H-inden-1-yl)-3-hydroxypyrrolidine-1-carboxamide], the “CDMF75 IC15” value stood at 1700 nM and the concentration for half-maximal inhibition (IC50) came to 6800 nM.
On to `O=C(NC1CCc2cc(-c3noc(C(F)F)n3)ccc21)c1cnc(Cl)s1` (stereo not shown) [Compound 8, 2-chloro-N-(5-(5-(difluoromethyl)-1,2,4-oxadiazol-3-yl)-2,3-dihydro-1H-inden-1-yl)thiazole-5-carboxamide], for which the “CDMF75 IC15” value turned out to be 400 nM and the IC50 came to 1400 nM.
The corresponding values for `CCC(=O)N[C@@H]1CCc2cc(-c3noc(C(F)F)n3)ccc21` [Compound 283, (R)-N-(5-(5-(difluoromethyl)-1,2,4-oxadiazol-3-yl)-2,3-dihydro-1H-inden-1-yl)propionamide] are 9600 nM and greater than 39200 nM.
As for `CC(C)(O)C(=O)N[C@@H]1CCc2cc(-c3noc(C(F)F)n3)ccc21` [Compound 290, (R)-N-(5-(5-(difluoromethyl)-1,2,4-oxadiazol-3-yl)-2,3-dihydro-1H-inden-1-yl)-2-hydroxy-2-methylpropanamide], the “CDMF75 IC15” value worked out at 39200 nM and the IC50 is greater than 39200 nM.
For the compound `Cn1nccc1C(=O)NC1CCc2cc(-c3noc(C(F)F)n3)ccc21` (stereo not shown) [Compound 35, N-(5-(5-(difluoromethyl)-1,2,4-oxadiazol-3-yl)-2,3-dihydro-1H-inden-1-yl)-1-methyl-1H-pyrazole-5-carboxamide], the “CDMF75 IC15” value came out at 500 nM and the IC50 came to 1600 nM.
In the same order, the values of `CC(C)NC(=O)NC1CCc2cc(-c3noc(C(F)F)n3)ccc21` (stereo not shown) [Compound 14, 1-(5-(5-(difluoromethyl)-1,2,4-oxadiazol-3-yl)-2,3-dihydro-1H-inden-1-yl)-3-isopropylurea] are 39200 nM and greater than 39200 nM.
Consider `Cc1ccnc(C(=O)NC2CCc3cc(-c4noc(C)n4)ccc32)c1` (stereo not shown) [Compound 68, 4-methyl-N-(5-(5-methyl-1,2,4-oxadiazol-3-yl)-2,3-dihydro-1H-inden-1-yl)picolinamide], for which the “CDMF75 IC15” value is 1600 nM and the IC50 stood at 6100 nM.
Turning to `Cc1noc(-c2ccc3c(c2)CC[C@H]3NC(=O)c2nnn(C)n2)n1` [Compound 203, (R)-2-methyl-N-(5-(3-methyl-1,2,4-oxadiazol-5-yl)-2,3-dihydro-1H-inden-1-yl)-2H-tetrazole-5-carboxamide], the “CDMF75 IC15” value came to 1000 nM and the IC50 worked out at 3600 nM.
Turning to `CCc1nc(-c2ccc3c(c2)CC[C@H]3NC(=O)c2cnc(O)o2)no1` [Compound 638, (R)-N-(5-(5-ethyl-1,2,4-oxadiazol-3-yl)-2,3-dihydro-1H-inden-1-yl)-2-hydroxyoxazole-5-carboxamide], the “CDMF75 IC15” value was found to be 1000 nM and the IC50 is 3900 nM.
For `O=C(N[C@@H]1CCc2cc(-c3noc(C(F)F)n3)ccc21)N1CCOCC1` [Compound 301, (R)-N-(5-(5-(difluoromethyl)-1,2,4-oxadiazol-3-yl)-2,3-dihydro-1H-inden-1-yl)morpholine-4-carboxamide], the “CDMF75 IC15” value stood at 9500 nM and the half-maximal inhibitory concentration (IC50) is greater than 39200 nM.
